In US20240101570A1 (AMGEN INC., priority 2020, published 2024) one finds IC50 data, which are given here for 26 compounds.

The subject of one assay is HCT116 WT cells. Nature of the assay: HCT116 WT cell proliferation / viability (CellTiter-Glo, 6 days). In kind it is cell-based. To be noted: Homo sapiens, HCT-116, 144 h, HCT116 WT cells, 6 days, CellTiter-Glo; read-out: HCT-116 WT IC50. The essentials: (§1)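 Viability read by CellTiter-Glo after 6-day compound exposure of MTAP-null and wild-type HCT116 cells grown in RPMI 1640 with 10% FBS. Dosing used 1:3 steps from 1 or 10 μM (8-9 points) or 1:2 steps from 10 or 50 μM (22 points); IC50 taken where fitted curve crosses 50% of control.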

Another assay concerns HCT116 MTAP null cells. Nature of the assay: HCT116 MTAP null cell proliferation / viability (CellTiter-Glo, 6 days). To be noted: HCT116-MTAP null, 144 h, HCT116 MTAP null cells, 6 days, CellTiter-Glo; read-out: HCT-116 MTAP null IC50. In kind it is cell-based. The method in brief: as §1

pIC50: −log10 of the molar value. Bounds are passed on as bounds.

`CCN(Cc1ccc(C(F)(F)F)nn1)C(=O)c1ccc2nc(N)c3c(c2c1)CO[C@@H]3C` [Example 551, (3R)-4-amino-N-ethyl-3-methyl-N-((6-(trifluoromethyl)-3-pyridazinyl)methyl)-1,3-dihydrofuro[3,4-c]quinoline-8-carboxamide]: the pIC50 (usually −log10 of the IC50, conventionally taken in molar units) was 5.25 in the assay on HCT116 WT cells and 6.90 in the assay on HCT116 MTAP null cells.

As for `CN(Cc1ccc(C(F)(F)F)cc1)C(=O)c1cc2c(cc1F)nc(N)c1cnn(C)c12` [Example 552, 4-amino-7-fluoro-N,1-dimethyl-N-(4-(trifluoromethyl)benzyl)-1H-pyrazolo[4,3-c]quinoline-8-carboxamide], the pIC50 in the assay on HCT116 WT cells was 5.73; with HCT116 MTAP null cells it was 7.60.

On to `CCN(Cc1ccc(C(F)(F)F)cn1)C(=O)c1cc2c(cn1)nc(N)c1c(C)nn(C)c12` [Example 553, 4-amino-N-ethyl-1,3-dimethyl-N-((5-(trifluoromethyl)-2-pyridinyl)methyl)-1H-pyrazolo[4,3-c][1,7]naphthyridine-8-carboxamide], for which the results for the pIC50 in the assay with HCT116 WT cells and in the assay on HCT116 MTAP null cells were 4.91 and 6.61, respectively.

For the compound `CCN(Cc1ccc(C(F)(F)F)cn1)C(=O)c1cc2c(cc1F)nc(N)c1cnn(C)c12` [Example 554, 4-amino-N-ethyl-7-fluoro-1-methyl-N-((5-(trifluoromethyl)-2-pyridinyl)methyl)-1H-pyrazolo[4,3-c]quinoline-8-carboxamide], the pIC50 in the assay with HCT116 WT cells was 6.74; with HCT116 MTAP null cells, 8.10.

`CCN(Cc1ccc(C(F)(F)F)nn1)C(=O)c1cc2c(cc1F)nc(N)c1cnn(C)c12` [Example 555, 4-amino-N-ethyl-7-fluoro-1-methyl-N-((6-(trifluoromethyl)-3-pyridazinyl)methyl)-1H-pyrazolo[4,3-c]quinoline-8-carboxamide]: the pIC50 is 5.69 in the assay with HCT116 WT cells and 7.64 with HCT116 MTAP null cells.

With `CCN(Cc1ccc(C(F)(F)F)cn1)C(=O)c1cc2c3c(c(N)nc2cc1F)[C@@H](C)OC3` [Example 556, (3R)-4-amino-N-ethyl-7-fluoro-3-methyl-N-((5-(trifluoromethyl)-2-pyridinyl)methyl)-1,3-dihydrofuro[3,4-c]quinoline-8-carboxamide], the pIC50 in the assay on HCT116 WT cells is 6.34; in the assay with HCT116 MTAP null cells, 7.85.

Turning to `CCN(Cc1ccc(C(F)(F)F)cn1)C(=O)c1cc2c3c(c(N)nc2cc1F)[C@H](C)OC3` [Example 557, (3S)-4-amino-N-ethyl-7-fluoro-3-methyl-N-((5-(trifluoromethyl)-2-pyridinyl)methyl)-1,3-dihydrofuro[3,4-c]quinoline-8-carboxamide], the pIC50 was 4.91 in the assay with HCT116 WT cells and 6.43 with HCT116 MTAP null cells.

For the compound `CN(Cc1ccc(C(F)(F)F)cc1)C(=O)c1cc2c(cc1Cl)nc(N)c1cnn(C)c12` [Example 558, 4-amino-7-chloro-N,1-dimethyl-N-(4-(trifluoromethyl)benzyl)-1H-pyrazolo[4,3-c]quinoline-8-carboxamide], the negative-log IC50 (pIC50) is 6.38 in the assay with HCT116 WT cells and 7.72 with HCT116 MTAP null cells.

For the compound `CCN(Cc1ccc(C(F)(F)F)nn1)C(=O)c1cc2c3c(c(N)nc2cc1F)[C@@H](C)OC3` [Example 559, (3R)-4-amino-N-ethyl-7-fluoro-3-methyl-N-((6-(trifluoromethyl)-3-pyridazinyl)methyl)-1,3-dihydrofuro[3,4-c]quinoline-8-carboxamide], the pIC50 was 5.93 in the assay on HCT116 WT cells and 7.52 in the assay on HCT116 MTAP null cells.

On to `CCN(Cc1ccc(C(F)(F)F)cn1)C(=O)c1cc2c(cc1F)nc(N)c1c(C)nn(C)c12` [Example 560, 4-amino-N-ethyl-7-fluoro-1,3-dimethyl-N-((5-(trifluoromethyl)-2-pyridinyl)methyl)-1H-pyrazolo[4,3-c]quinoline-8-carboxamide], for which the values for the pIC50 in the assay with HCT116 WT cells and in the assay with HCT116 MTAP null cells were 5.38 and 7.25, respectively.

On to `CN(Cc1ccc(C(F)(F)C(F)(F)F)cc1)C(=O)c1ccc2nc(N)c3cnn(C)c3c2c1` [Example 561, 4-amino-N,1-dimethyl-N-(4-(pentafluoroethyl)benzyl)-1H-pyrazolo[4,3-c]quinoline-8-carboxamide], for which the pIC50 is 5.27 with HCT116 WT cells and 7.05 in the assay with HCT116 MTAP null cells.

In the case of `CN(Cc1ccc(C(F)(F)C(F)(F)F)cc1)C(=O)c1cc2c(cn1)nc(N)c1cnn(C)c12` [Example 562, 4-amino-N,1-dimethyl-N-(4-(pentafluoroethyl)benzyl)-1H-pyrazolo[4,3-c][1,7]naphthyridine-8-carboxamide], the pIC50 is 5.45 in the assay with HCT116 WT cells and 7.07 in the assay with HCT116 MTAP null cells.

Consider `CN(Cc1ccc(C(F)(F)C(F)(F)F)cc1)C(=O)c1cc2c(cc1F)nc(N)c1cnn(C)c12` [Example 563, 4-amino-7-fluoro-N,1-dimethyl-N-(4-(pentafluoroethyl)benzyl)-1H-pyrazolo[4,3-c]quinoline-8-carboxamide], for which the figures for the pIC50 in the assay on HCT116 WT cells and in the assay with HCT116 MTAP null cells were 5.68 and 7.55, respectively.

With `CCN(Cc1ccc(S(F)(F)(F)(F)F)cc1)C(=O)c1ccc2nc(N)c3cnn(C)c3c2c1` [Example 564, 4-amino-N-ethyl-1-methyl-N-(4-(pentafluoro-lambda~6~- sulfanyl)benzyl)-1H-pyrazolo[4,3-c]quinoline-8-carboxamide], the values for the pIC50 in the assay on HCT116 WT cells and with HCT116 MTAP null cells were 6.03 and 7.68, respectively.

For the compound `CCN(Cc1ccc(S(F)(F)(F)(F)F)cc1)C(=O)c1cc2c(cn1)nc(N)c1cnn(C)c12` [Example 565, 4-amino-N-ethyl-1-methyl-N-(4-(pentafluoro-lambda~6~- sulfanyl)benzyl)-1H-pyrazolo[4,3-c][1,7]naphthyridine-8-carboxamide], the pIC50 with HCT116 WT cells is 6.19; in the assay with HCT116 MTAP null cells, 7.72.

With `CCN(Cc1ccc(S(F)(F)(F)(F)F)cc1)C(=O)c1cc2c(cc1F)nc(N)c1cnn(C)c12` [Example 566, 4-amino-N-ethyl-7-fluoro-1-methyl-N-(4-(pentafluoro-lambda~6~-sulfanyl)benzyl)-1H-pyrazolo[4,3-c]quinoline-8-carboxamide], the pIC50 in the assay on HCT116 WT cells is 6.74; in the assay with HCT116 MTAP null cells, 7.89.

For `CN(Cc1ccc(C(F)(F)F)cn1)C(=O)c1ccc2nc(N)c3cnn(C)c3c2c1` [Example 567, 4-amino-N,1-dimethyl-N-((5-(trifluoromethyl)-2-pyridinyl)methyl)-1H-pyrazolo[4,3-c]quinoline-8-carboxamide], the pIC50 in the assay with HCT116 WT cells is 5.17; with HCT116 MTAP null cells, 7.05.

For the compound `CN(Cc1ccc(C(F)(F)F)cn1)C(=O)c1cc2c(cn1)nc(N)c1cnn(C)c12` [Example 568, 4-amino-N,1-dimethyl-N-((5-(trifluoromethyl)-2-pyridinyl)methyl)-1H-pyrazolo[4,3-c][1,7]naphthyridine-8-carboxamide], the pIC50 in the assay with HCT116 WT cells is 5.27; in the assay on HCT116 MTAP null cells it was 7.04.

Take `Cn1ncc2c(N)nc3ccc(C(=O)N(Cc4ccc(C(F)(F)F)cn4)C4CC4)cc3c21` [Example 569, 4-amino-N-cyclopropyl-1-methyl-N-((5-(trifluoromethyl)-2-pyridinyl)methyl)-1H-pyrazolo[4,3-c]quinoline-8-carboxamide]: the pIC50 in the assay on HCT116 WT cells was 5.41; with HCT116 MTAP null cells, 7.51.

Take `Nc1nc2cc(F)c(C(=O)N(Cc3ccc(C(F)(F)F)cn3)C3CC3)cc2c2c1cnn2CC(F)(F)F` [Example 570, 4-amino-N-cyclopropyl-7-fluoro-1-(2,2,2-trifluoroethyl)-N-((5-(trifluoromethyl)-2-pyridinyl)methyl)-1H-pyrazolo[4,3-c]quinoline-8-carboxamide]: the results for the pIC50 in the assay on HCT116 WT cells and with HCT116 MTAP null cells were 6.48 and 6.12, respectively.

Take `CN(Cc1ccc(C(F)(F)F)nn1)C(=O)c1cc2c(cc1F)nc(N)c1cnn(C)c12` [Example 571, 4-amino-7-fluoro-N,1-dimethyl-N-((6-(trifluoromethyl)-3-pyridazinyl)methyl)-1H-pyrazolo[4,3-c]quinoline-8-carboxamide]: the pIC50 was 5.31 in the assay on HCT116 WT cells and 7.15 in the assay with HCT116 MTAP null cells.

For the compound `CN(Cc1ccc(C(F)(F)F)cn1)C(=O)c1cc2c3c(c(N)nc2cc1C(F)(F)F)COC3` [Example 572, 4-amino-N-methyl-7-(trifluoromethyl)-N-((5-(trifluoromethyl)-2-pyridinyl)methyl)-1,3-dihydrofuro[3,4-c]quinoline-8-carboxamide], the values for the pIC50 in the assay with HCT116 WT cells and in the assay with HCT116 MTAP null cells were below 4.30 and 6.03, respectively.

Regarding `CN(Cc1ccc(S(F)(F)(F)(F)F)cc1)C(=O)c1ccc2nc(N)c3cnn(C)c3c2c1` [Example 573, 4-amino-N,1-dimethyl-N-(4-(pentafluoro-lambda~6~- sulfanyl)benzyl)-1H-pyrazolo[4,3-c]quinoline-8-carboxamide], the pIC50 in the assay with HCT116 WT cells is 5.43; in the assay on HCT116 MTAP null cells, 7.07.

For the compound `CN(Cc1ccc(S(F)(F)(F)(F)F)cc1)C(=O)c1cc2c(cn1)nc(N)c1cnn(C)c12` [Example 574, 4-amino-N,1-dimethyl-N-(4-(pentafluoro-lambda~6~- sulfanyl)benzyl)-1H-pyrazolo[4,3-c][1,7]naphthyridine-8-carboxamide], the pIC50 with HCT116 WT cells is 6.06; with HCT116 MTAP null cells, 7.60.

Turning to `CN(Cc1ccc(S(F)(F)(F)(F)F)cc1)C(=O)c1cc2c(cc1F)nc(N)c1cnn(C)c12` [Example 575, 4-amino-7-fluoro-N,1-dimethyl-N-(4-(pentafluoro-lambda~6~- sulfanyl)benzyl)-1H-pyrazolo[4,3-c]quinoline-8-carboxamide], the pIC50 in the assay on HCT116 WT cells was 6.45; in the assay with HCT116 MTAP null cells it was 7.92.

With `CN(Cc1ccc(S(F)(F)(F)(F)F)cc1O)C(=O)c1cc2c3c(c(N)nc2cc1F)COC3` [Example 576, 4-amino-7-fluoro-N-(2-hydroxy-4-(pentafluoro-lambda~6~- sulfanyl)benzyl)-N-methyl-1,3-dihydrofuro[3,4-c]quinoline-8-carboxamide], the pIC50 in the assay on HCT116 WT cells was 5.68; in the assay on HCT116 MTAP null cells, 6.97.
